Experiments:
Conditions in all cases: after 15 washes
[1] = Example 2A: azo dye in multicomponent kit (Michael addition), color result and wash fastness
Method: (§1) Pretreatment to Apply Cationic Polymer (PEI, Polyethylenimine) on the Hair Fiber Surface: • 1 ml of PEI solution (0.5% aqueous solution of PEI (MW: 75 kDa) is applied on the hair strand. • The hair strand is dried via blow-dryer, followed by further drying at 40° C. in the oven.
100 mg azo dye is suspended in 1 g THF, and 8.4 g Isododecane (2,2,4,6,6-pentamethylheptane) solution are added as solvent. Subsequently, 200 mg Silmer OH ACR DI-10 polymer (acrylate derivative) and 300 mg Silamine 2972 is added to the reaction mixture. The mixture is stirred at room temperature for 5 min.
(§2) 1 g of the above prepared formulation is applied on a pre-treated hair tress (as described above) and the polymers are allowed to react to start forming a film immobilizing the added dye. After removing the excess of the formulation, the film forming reaction is completed as the hair tress is dried via a heat blower.

[2] = Example 2C: azo dye in multicomponent kit (silicone & carbon-hybrid system), color result and wash fastness
Method: as §1
100 mg azo dye are mixed with 400 mg isocyanate polymer (Melio 09-S-11); 9.3 g 1-Methoxy-2-propanol are added and the mixture is well shaked.
as §2, with “Subsequently, 200 mg OH Silicone (Silmer OHT C-50) are added to the reaction mixture. The mixture is stirred at room temperature for 5 min. 1” for “1”

[3] = Example 2B: azo dye in multicomponent kit (isocyanate / OH silicone), color result and wash fastness
Method: as §1
100 mg azo dye are mixed with 300 mg isocyanate polymer (Silmer NCO DI50); 9.4 g 2,2,4,6,6-pentamethylheptane are added and the mixture is well shaked.
Subsequently, 200 mg OH Silicone (Silmer OHT C-50) are added to the reaction mixture. The mixture is stirred at room temperature for 5 min.
as §2

Row | SMILES | color remains to an extent of [1] | color remains to an extent of [2] | color remains to an extent of [3]
1 | CCN(CCO)c1ccc(/N=N/c2nc(N3CCN(C)CC3)c(C=C3C(=O)c4ccccc4C3=O)s2)cc1 [black azo, 2-[[2-[(E)-[4-[ethyl(2-hydroxyethyl)amino]phenyl]azo]-4-(4-methylpiperazin-1-yl)thiazol-5-yl]methylene]indane-1,3-dione] | 30% | 80% | 50%
2 | CCN(CCO)c1ccc(/N=N/c2nc(Cl)c(C=C3C(=O)c4ccccc4C3=O)s2)cc1 [blue azo, 2-{[4-chloro-2-((E)-{4-[ethyl(2-hydroxyethyl)amino]phenyl}diazenyl)-1,3-thiazol-5-yl]methylidene}-1H-indene-1,3(2H)-dione] | 80% | 80% | 90%
